Measurements published in US4297276A, “Thymosin beta 3 and beta 4” (Hoffman-La Roche Inc., priority 1980, dated 1981).
Numbered stars: 1 amine (or outer) side, 2 acyl side, 3 side chain; on linkers, the order of the positions; unused ones are H or OH. Bridge positions count the residues as written; N and C are the ends. Square brackets hold non-standard residues; d marks the D form. Peptide text beside a SMILES is read from it. I, II: the chains in the order shown. Actinocin(9to1) = Cc1c2oc3c(C)ccc(C(=O)[*:1])c3nc-2c(C(=O)[*:2])c(N)c1=O; NMeV = CN[C@H](C(=O)O)C(C)C; Sar = CNCC(=O)O

What was measured:
[1] = Isoelectric focusing (isoelectric point); assay type: physicochemical
Description: Isoelectric focusing was conducted for 90 minutes using a constant power of 25 watts (LKB Model 2103 power supply). The gels were fixed in 20% trichloroacetic acid for one hour. They were stained in 0.1% Coomassie Blue in 20% trichloroacetic acid and destained in 10% trichloroacetic acid.

[2] = system: terminal deoxynucleotidyl transferase (TdT); assay: In vivo TdT assay in thymocytes from hydrocortisone acetate treated C57BL/6J mice; conditions: for TdT specific activity: daily for 9 to 11 days, thymocytes
Description: (§1) The procedure for enzyme extraction has been described previously by Pazmino et al., J. Immunol. 119, 494 (1977).
(§2) The TdT assay was adapted from Kung et al, J. Exp. Med. 141, 855 (1975). One unit of enzyme activity was defined as the amount catalyzing the incorporation of 1 pmol of dGTP into acid insoluble material per hour. The specific activity was calculated from the total enzyme activity recovered from phosphocellulose per 10^8 nucleated viable cells.
Thymosin activity was also tested by a in vivo TdT assay. Different doses of thymosin fraction 5 and other purified thymosin polypeptides were injected into hydrocortisone acetate treated C57BL/6J mice daily for 9 to 11 days. The animals were sacrificed, thymocytes prepared and TdT activity determined using the method described by Pazmino et al., J. Immunol. 119, 494 (1977). […]

[3] = system: TdT positive cells in T-cell populations; conditions: partially purified peptides; Low and Goldstein 1978; cited from earlier work
[4] = system: terminal deoxynucleotidyl transferase (TdT); assay: In vitro induction of TdT in fraction B bone marrow cells from NIH Swiss nu/nu mice; assay type: cell-based; conditions: for TdT induction relative to the thymosin fraction 5 level: BSA fraction B from bone marrow; for TdT specific activity: peak I activity only, incubation 18 hours with 50 ng/ml
Description: The method of Raidt et al., J. Exp. Med. 128, 681 (1968) was used to fractionate different cell suspensions from spleen, thymus, lymph nodes or bone marrow. Four layers of cells were formed at the interfaces of the discontinuous BSA gradient: Fraction A between 10% and 23% BSA; fraction B between 23-26%; fraction C between 26-29%; and fraction D between 29-33% BSA. BSA (Path-O-Cyte 5, lots 25 and 26) was obtained from Miles Research Products (Elkhart, Ind.). Fractionated cells were washed three times in Ham's F-12 medium.
as §1, §2
Ten daily injections of 100 μg were given intraperitoneally to six-week-old NIH Swiss nu/nu, which were sacrificed 24 hours after the last injection. For the in vitro induction experiments, cells were washed three times after BSA gradient fractionation in Ham's F-12 medium containing 100 U/ml penicillin, 100 μg/ml streptomycin and 10 μg/ml gentomycin. After being washed, cell concentrations were adjusted to 1×10^8 cells/dish in 20 ml of Ham's F-12 medium containing antibiotics, 5% fetal bovine serum (Flow Laboratories, Rockville, Md.) and different concentrations of thymosin or spleen fraction 5 or of any of the different peptides isolated from thymosin. After incubation for various periods of time, cells were collected, washed twice with Ham's F-12 and extracted as previously described for TdT activity.
The following peptides, isolated from thymosin, were assayed for their ability to induce TdT in vitro: α1, β1, β3, β4, and synthetic α-1.
(§3) Actinomycin D at 0.5 μg/ml was incubated for 12 hours in the presence of thymosin with fraction B from the bone marrow of NIH Swiss nu/nu mice to study their effect on TdT induction. To follow the effect of Actinomycin D on RNA synthesis, cells were labeled with [^3 H] uridine (10 μCi/ml) for the last 90 minutes of incubation.

RNA synthesis = assay: Effect of Actinomycin D on RNA synthesis ([3H] uridine labeling) in fraction B bone marrow cells; assay type: cell-based, mice; conditions: 0.5 μg/ml, 12 hours, in the presence of thymosin
Description: as §3

[5] = FIG. 3, bone marrow fraction B cells

Row | Compound | isoelectric point (pI) [1] | TdT specific activity ([2]; 1 μg/infection) | TdT specific activity ([2]; 10 μg/infection) | activity in inducing TdT in vivo compared with thymosin fraction 5 ([2]; One μg of β3 vs 100 μg of thymosin fraction 5) | induction of TdT positive cells in T-cell populations [3] | shape of TdT dose response [4] | TdT induction relative to the thymosin fraction 5 level [4] | concentration with significant TdT induction [4, 5] | optimal concentration for TdT induction [4, 5] | effect on TdT induction at higher concentrations ([4]; FIG. 3, β3 even at 500 ng/ml) | TdT specific activity [4] | effect on induction of TdT by thymosin ([4]; 0.5 μg/ml actinomycin D, 12 hours, in the presence of thymosin) | inhibition of RNA synthesis (RNA synthesis)
1 | Thymosin β3 | 5.2 | 2758.6 p moles (3HdGTP/30 min/10^8 ce | 2954.3 p moles (3HdGTP/30 min/10^8 ce | as active in inducing TdT in vivo as 100 μg of thymosin fraction 5 | induce TdT positive cells | increases as the doses increase | ~80% | 1 ng/mL | 10 ng/mL | no inhibition of induction was observed | 145.0 picomoles 3HdGTP/hour/10^8 cel | – | –
2 | Cc1c2oc3c(C)ccc(C(=O)N[C@@H]4C(=O)N[C@H](C(C)C)C(=O)N5CCC[C@H]5C(=O)N(C)CC(=O)N(C)[C@@H](C(C)C)C(=O)O[C@@H]4C)c3nc-2c(C(=O)N[C@@H]2C(=O)N[C@H](C(C)C)C(=O)N3CCC[C@H]3C(=O)N(C)CC(=O)N(C)[C@@H](C(C)C)C(=O)O[C@@H]2C)c(N)c1=O [actinomycin D, Actinomycin D, reference compound] (I: T[dV]P[Sar][NMeV] / II: T[dV]P[Sar][NMeV]; ester I:1-I:C, II:1-II:C; linker I:N-II:N via Actinocin(9to1)) | – | – | – | – | – | – | – | – | – | – | – | inhibited, as is the induction of TdT | greater than 95%
3 | Thymosin β4 | 5.1 | – | – | – | induce TdT positive cells | increases as the doses increase | 30% | – | – | – | 58.0 picomoles 3HdGTP/hour/10^8 cel | – | –
